According to patent publication US11656221B2, “Methods to identify modulators of actin-binding proteins” (Regents of the University of Minnesota, priority 2019, dated 2023):
“Also recorded” adds a separate entry of the source. Where two headings read alike, the source gives them in different places. Values belong to the compound of their own block, whether it stands above or below them.

Key:
[1] = biological target: T1, Lifeact-mCherry binding to F-actin (Oryctolagus cuniculus, UniProt P68135); test: F-actin and Lifeact-mCherry co-sedimentation assay; parameters: species or system New Zealand white rabbit (Oryctolagus cuniculus); details: 10 μM
T1 construct: Actin was purified from acetone powder derived from the psoas muscle; made in house; host or cells: actin from rabbit psoas muscle; Lifeact-mCherry from E. coli, pE-SUMOpro
Procedure: Actin was purified from acetone powder derived from the psoas muscle of New Zealand white rabbit (Oryctolagus cuniculus). Filamentous (F)-actin was stored for up to 3 days on ice before use in binding assays. Within an hour of the binding assay, the F-actin was clarified at 100,000×g at 4° C. for 10 min prior to setting up binding assays. The L253P β-III-spectrin ABD was expressed in E. coli BL21(DE3) (Novagen). The ABD was purified and the His-SUMO tag proteolytically removed, as previously described, except size-exclusion chromatography was not performed due to the high purity of the ABD protein. Lifeact-mCherry protein was similarly prepared. A Bradford assay was performed to determine clarified F-actin and ABD protein concentrations.
F-actin and ABD binding assays were performed as previously described. In brief, binding assays used 1 μM ABD protein, 1 μM F-actin and 1-50 μM compound (as indicated) or DMSO control for a total reaction volume of 60 μL in F-buffer containing 10 mM Tris, pH 7.5, 150 mM NaCl, 0.5 mM ATP, 2 mM MgCl2, and 1 mM DTT. Following 30 min incubation at room temperature (21° C.). F-actin was pelleted using centrifugation at 100,000×g at 25° C. for 30 min. Unbound ABD in the supernatant was measured following SDS-PAGE and Coomassie blue staining in accord. In addition, control co-sedimentations assays that lacked actin were performed to test if compounds cause ABD aggregation. F-actin and Lifeact-mCherry binding assays were undertaken with 2 μM Lifeact-mCherry, 30 μM F-actin and 1-50 μM compound (as indicated) or DMSO control for a total reaction volume of 80 μL in F-buffer. For a no-actin binding control, an assay sample with no F-actin was also set up. Binding reactions were allowed to reach equilibrium at room temperature (21° C.) for 30 min and then F-actin was pelleted by centrifugation at 100,000×g at 25° C. for 30 min. The amount of unbound Lifeact-mCherry was sampled by loading 7 μL of spin supernatant on a low volume black bottom 384-well plate (Greiner). Amount of mCherry was determined by acquiring fluorescence spectrum peak intensity at ˜600 nm using a spectral unmixing plate reader (Fluorescence Innovations, Inc) equipped with a 532 nm laser (Laserglow Technologies, Ontario, Canada) for excitation, 532 nm longpass filter for emission, and PMT for emission detection. The fraction of Lifeact-mCherry bound to F-actin was determined by subtracting from one the fraction of supernatant fluorescence intensity relative to the no-actin control sample, using the following equation:
[formula] • Where Fcontrol/DMSO is the peak mCherry fluorescence of assay samples containing compound or DMSO control, and Fno-actin is the peak mCherry fluorescence of assay samples that contained no F-actin. 2.9 Trypan Blue Cell Viability Assays

HEK293-6E cells = test: Trypan blue cell viability assay; format: cell-based; details: 10 μM, 3 hr incubation
Procedure: HEK293-6E cell viability was measured using trypan blue (0.03%) staining and a Countess Automated Cell counter (Invitrogen). Non-transfected HEK293-6E cells were spun at 100×g for 5 min at 21° C., and resuspended in 10 mL of PBS. The centrifugation and resuspension were repeated twice more. Final cell concentration was 1×10^6 cells/mL. Cells were incubated with 2% DMSO, or 3-50 μM compound (as indicated) for 3 hrs at room temperature (21° C.). After addition of 100 μL of 0.06% trypan blue solution in PBS, 10 μL was loaded on a slide and injected into the cell counter, and cell viability was measured.

mammalian cells = details: cited from earlier work
[2] = biological target: T2, ternary complex consisting of GFP-ABD-L253P, Lifeact-mCherry, and actin (Homo sapiens, UniProt O15020, L253P); test: Primary live-cell time-resolved FRET assay (GFP-ABD-L253P plus Lifeact-mCherry); format: cell-based; details: LOPAC compounds 10 μM, 120 min
T2 construct: L252P β-III-spectrin (human) ABD residues 1-284; expressed in transfected cells; host or cells: HEK293-6E, pTT5 vector, transient

[3] = biological target: T3, GFP-ABD-L253P and Lifeact-mCherry on actin filaments (Homo sapiens, UniProt O15020, L253P); test: Live-cell FRET assay after actin depolymerization (Example 2); format: cell-based; details: 60 min treatment
T3 construct: expressed in transfected cells; host or cells: HEK293.2sus (ATCC CRL-1573.3), pcDNA3.1(+), transient
Text: Expression constructs. FRET donor and acceptor constructs were generated using the plasmid expression vector, pcDNA3.1(+) (Invitrogen). The coding sequence for Lifeact-mCherry was PCR amplified from mCherry-Lifeact-7 (Addgene, plasmid #54491) using the oligonucleotides, […] and […], and ligated into pcDNA3.1(+) using the restriction enzymes Kpn1 and Xba1, resulting in the construct pcDNA3.1-Lifeact-mCherry. To generate GFP-ABD expression constructs, a mEGFP DNA construct with flanking Kpn1 and EcoR1 restriction sites, was synthesized (Integrated DNA Technologies). The mEGFP sequence was subcloned into pcDNA3.1(+) using Kpn1 and EcoR1 restriction enzymes, resulting the in the construct, pcDNA3.1-GFP. DNA sequences encoding the wild-type or L253P human β-III-spectrin ABD (amino acids 1-284, NCBI reference sequence NP_008877.1) were PCR amplified from pE-SUMO-ABD-WT or -L253P (Avery, 2017 PMID: 29116080) using the oligonucleotides […] and […], and inserted into pcDNA3.1-GFP using EcoR1 and Xba1 restriction enzymes. The resulting constructs, pcDNA3.1-GFP-ABD-WT and -L253P, along with pcDNA3.1-Lifeact-mCherry, were sequence verified. […]
FRET Measurement. FRET in live cells was measured using a Fluorescence Lifetime (FLT) Plate Reader (FLTPR) (Fluorescence Innovations). […]

actin filaments = details: cited from earlier work

T3 sequence (O15020 1-284 L253P): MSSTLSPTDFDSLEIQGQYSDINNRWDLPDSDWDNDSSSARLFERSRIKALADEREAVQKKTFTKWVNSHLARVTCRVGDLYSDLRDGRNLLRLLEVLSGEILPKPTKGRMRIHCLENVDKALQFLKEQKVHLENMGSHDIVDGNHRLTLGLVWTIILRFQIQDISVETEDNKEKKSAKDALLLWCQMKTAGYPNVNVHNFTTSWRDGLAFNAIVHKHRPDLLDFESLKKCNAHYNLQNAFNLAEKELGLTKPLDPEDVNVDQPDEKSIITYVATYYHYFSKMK
T2 sequence (O15020 1-284 L253P, one chain of several): as the sequence (O15020 1-284 L253P) above

effect on FRET in primary screen (Hit, 4SD threshold) [2]: decrease FRET
Compound: Clc1ccc(C(c2ccc(Cl)cc2)n2cc[n+](CC(OCc3ccc(Cl)cc3Cl)c3ccc(Cl)cc3Cl)c2)cc1 (centres unmarked) [calmidazolium]
effect on Lifeact-mCherry binding with actin [1]: decreased actin-Lifeact co-sedimentation; also recorded: reduce Lifeact-mCherry binding with actin
effect on HEK293-6E cell viability (HEK293-6E cells): dramatically reduced cell viability; also recorded: reduces HEK293-6E cell viability
reported effect on cell viability (mammalian cells): reported to reduce cell viability

Compound: C/C1=C/C(=O)O[C@@H]2C[C@@H](CC[C@H](C)/C=C\C=C\CC1)O[C@@](O)([C@@H]1CSC(=O)N1)C2 [latrunculin A]
effect on FRET between GFP-ABD-L253P and Lifeact-mCherry [3]: significantly reduce FRET; also recorded: decrease in FRET

Compound: C/C1=C/C(=O)O[C@@H]2C[C@@H](CC[C@H](C)/C=C\CC1)O[C@@](O)([C@@H]1CSC(=O)N1)C2 [latrunculin B]
effect on FRET between GFP-ABD-L253P and Lifeact-mCherry [3]: significantly reduce FRET; also recorded: decrease in FRET

Compound: K255E α-actinin-4: α-actinin-4 carrying the disease mutation K255E
Kd (actin filaments; mutant ABD proteins): 0.046 µM

Compound: wild-type: wild-type dystrophin, comparator for L212P
Kd (actin filaments; wild-type dystrophin, Singh et al.): ~45 µM
